Experimental data as given in patent US9149426B2, “Nanoparticle composition and methods to make and use the same” (priority 2012, dated 2015).

What was measured:
[1] = Solubility of organic phase solvents in water or poly(ortho ester) polymer
[2] = at 25° C.; cited from earlier work
HEK-293 cells = assay: In vitro cytotoxicity, MTT assay; conditions: 1% Triton-X 100, 80 μM H2O2, 48 h
Method: The amount of lactic acid release was quantified by using lactate assay kit (BioVision Inc., Milpitas, Calif.) following manufacturer's specifications. […] Forty microliters of MTT reagent (5 mg/ml in phosphate buffered saline) was added to each well. After 2 h of incubation at 37° C., 200 μl of dimethylsulfoxide (DMSO) was added to each well to dissolve the formazan crystals. After 5 minutes, the optical absorbance was measured at 570 nm and converted to percent viability relative to control (untreated) cells. All samples were tested in quadruplicate.
One hundred microliters of diluted nanoparticles (0.1, 0.2, 0.3, 0.4, 0.5, 0.6, and 1 mg/ml) stock solution was added to each well and incubated with the cells for 48 h, and then replaced with growth medium (160 μl). MTT reagent (40 μl) was added to each well to form formazan. After 2 h of incubation at 37° C., 200 μl of dimethylsulfoxide (DMSO) was added to each well to dissolve the formazan crystals. After 5 m optical absorbance was measured at 570 nm and converted to percent viability relative to control (untreated) cells (n=4).

Xenopus laevis frogs = assay: Effective dose in in vitro studies using frogs

Row | Compound | Solubility of POE (poly(ortho ester) polymer) in the organic phase solvent [1] | Solubility in water [2] | Cell viability of positive controls (HEK-293 cells) [%] | other results
1 | CC(C)=O [Acetone] | Immiscible | Very soluble | – | –
2 | ClCCl [Dichloromethane] | Excellent solvent | Immiscible (1.6% (w/w) | – | –
3 | CCOC(C)=O [Ethyl acetate] | – | (8.7% (w/w) | – | –
4 | OO [H2O2] | – | – | 8 | –
5 | Triton-X 100 | – | – | 5 | –
6 | asialo, galactosylated, triantennary (NA3) oligosaccharides | – | – | – | Effective dose in vitro (Xenopus laevis frogs): 1 nM
